Earlier results in US12012453B2, “Methods for treating late-stage small cell lung cancer by administering a human anti-PD-L1 antibody, an etoposide and a platinum-based therapeutic” (ASTRAZENECA AB, priority 2019, dated 2024).

Key:
[1] = tested on: patients with platinum-refractory disease; conditions: second-line; cited from earlier work
[2] = tested on: PD-L1-mediated suppression of human T-cell activation; conditions: in vitro; cited from earlier work
xenograft model = conditions: cited from earlier work

Molecule	one-year survival rate [1]	response rates [1]	relief of PD-L1-mediated suppression of human T-cell activation [2]	tumor growth inhibition (xenograft model)
CC[C@@]1(O)C(=O)OCc2c1cc1n(c2=O)Cc2cc3c(CN(C)C)c(O)ccc3nc2-1 [topotecan]	9%	5%		
Durvalumab: human IgG1 monoclonal antibody that selectively binds PD-L1 and blocks binding to PD-1 and CD80; VL SEQ ID NO: 1, VH SEQ ID NO: 2 (antibody, V domains shown) VH: EVQLVESGGGLVQPGGSLRLSCAASGFTFSRYWMSWVRQAPGKGLEWVANIKQDGSEKYYVDSVKGRFTISRDNAKNSLYLQMNSLRAEDTAVYYCAREGGWFGELAFDYWGQGTLVTVSS VL: EIVLTQSPGTLSLSPGERATLSCRASQRVSSSYLAWYQQKPGQAPRLLIYDASSRATGIPDRFSGSGSGTDFTLTISRLEPEDFAVYYCQQYGSLPWTFGQGTKVEIK			can relieve PD-L1-mediated suppression of human T-cell activation in vitro	inhibits tumor growth in a xenograft model via a T-cell dependent mechanism
